Reference: patent US8778946B2, “3-substituted-6-(pyridinylmethoxy)-pyrrolopyridine compounds” (Eli Lilly and Company, priority 2010, dated 2014)
“And” between values parts separate entries of the source, which are not always exact repeats. Equal entries are not always repeated. Marks after values point to notes of the source that are not given here.

Legend:
[1] = tested on: Male, NIH-Swiss mice; assay: Mouse forced-swim; assay type: in vivo
Protocol: Male, NIH-Swiss mice (20-25 g, Harlan Sprague-Dawley, Indianapolis, Ind.) are used in a method modified from that of Porsolt R D, Le Pichon M, Jalfre M Depression: a new animal model sensitive to antidepressant treatments. Nature. 1977 Apr. 21; 266(5604):730-2. Mice are placed in clear plastic cylinders (diameter 10 cm; height: 25 cm) filled to 6 cm with 22-25° C. water for six min. The duration of immobility is recorded during the last 4 min of a six-minute trial. A mouse is regarded as immobile when floating motionless or making only those movements necessary to keep its head above the water. Data are analyzed by post-hoc Dunnett's test with alpha level set at 0.05. The amount of time spent immobile is measured. Means+S.E.M. are subjected to ANOVA followed by Dunnett's test with p<0.05 set as the error rate for statistical significance. ED60 values are extrapolated from the linear portion of the dose-effect curve and represent the dose predicted to decrease basal immobility (100% at 0 mg/kg compound) by 60%. The maximal decrease in immobility time is calculated using the largest decrease in immobility produced at any dose of a compound with this formula: (100-immobility with compound/immobility under vehicle control) %.

[2] = tested on: male Fischer F-344 Sasco rats; assay: Attenuation of stress-induced hyperthermia in rats; assay type: in vivo; conditions: oral, 60-min pretreatment
Protocol: Stress-induced hyperthermia is attenuated by clinical anxiolytics and is widely used preclinically to predict anxiolytic efficacy of compounds.
In separate studies, male Fischer F-344 Sasco rats are dosed orally with 0.3, 1, 3, or 10 mg/kg of test compound in a vehicle consisting of 1% carboxymethylcellulose, 0.25% polysorbate 80, 0.05% antifoam (dose volume=1 ml/kg). The mGluR5 receptor antagonist MTEP (3-[(2-methyl-1,3-thiazol-4-yl)ethynyl]pyridine) (10 mg/kg, PO) is used as a quality control. Following a 60-min pretreatment period, core baseline body temperature is measured (T1, in degrees C.) and then ten minutes later a second body temperature measurement is recorded (T2). The change in body temperature (T2 minus T1) is defined as the stress-induced hyperthermic response. The efficacious dose is the dose at which a compound produces a 35% reduction in stress-induced hyperthermia, relative to the vehicle response, and is defined as the T35 dose.

[3] = tested on: C57/black 6J male mice; assay: Reversal of reserpine-induced akinesia; assay type: in vivo
Protocol: (§1) Anti-Parkinson effects of compounds of the invention can be determined using procedures well known in the art such as animal models of locomotor activity. For example, compounds of the invention show effects on basal (habituated) locomotor activity and on reserpine-induced akinesia in C57/black 6J male mice.
Reserpine is a catecholamine depleting agent (depletes dopamine and noradrenaline) and 18-24 hours after treatment mice become akinetic and have reduced locomotor activity counts. Reserpine-induced akinesia is assessed by measuring the effect of compounds on locomotor activity approximately 18-24 hours after a single dose of 1 mg/kg reserpine i.p. The equipment used is the same as that used for basal locomotor activity (above).
(§2) Mice are randomly assigned to treatment groups. Each mouse is placed individually into one of the locomotor activity boxes. Distance moved (cm) is recorded per 5 minutes for each mouse. Basal and reserpine-induced exploratory behavior is assessed for the following 30 minutes. After 30 minutes recording stops and mice are dosed p.o. with the test compound in a volume of 10 ml/kg. Once all mice have been dosed locomotor activity recording is started for a further 120 minutes to assess the effect of treatment on akinesia. Data is transferred from the software/computers to spreadsheets for further analysis. Statistical analysis is carried out using Statistica 8.0. One way ANOVA on TOTAL distance moved, with Treatment group as the between factor, is calculated. If a significant Treatment effect (p≦0.05) is observed then post-hoc analysis is performed, either Fishers' LSD or Dunnetts' test.

[4] = target: T1, human mGluR1 (Homo sapiens, UniProt Q13255); assay: Human mGluR1 in vitro functional assay (FLIPR calcium, antagonism of glutamate EC90 response); assay type: cell-based; conditions: AV-12 cells expressing recombinant human mGlu1α, relative IC50
T1 construct: expressed in transfected cells; host or cells: AV-12 cells containing the rat EAAT1 glutamate transporter
T1 sequence (Q13255 19-1194): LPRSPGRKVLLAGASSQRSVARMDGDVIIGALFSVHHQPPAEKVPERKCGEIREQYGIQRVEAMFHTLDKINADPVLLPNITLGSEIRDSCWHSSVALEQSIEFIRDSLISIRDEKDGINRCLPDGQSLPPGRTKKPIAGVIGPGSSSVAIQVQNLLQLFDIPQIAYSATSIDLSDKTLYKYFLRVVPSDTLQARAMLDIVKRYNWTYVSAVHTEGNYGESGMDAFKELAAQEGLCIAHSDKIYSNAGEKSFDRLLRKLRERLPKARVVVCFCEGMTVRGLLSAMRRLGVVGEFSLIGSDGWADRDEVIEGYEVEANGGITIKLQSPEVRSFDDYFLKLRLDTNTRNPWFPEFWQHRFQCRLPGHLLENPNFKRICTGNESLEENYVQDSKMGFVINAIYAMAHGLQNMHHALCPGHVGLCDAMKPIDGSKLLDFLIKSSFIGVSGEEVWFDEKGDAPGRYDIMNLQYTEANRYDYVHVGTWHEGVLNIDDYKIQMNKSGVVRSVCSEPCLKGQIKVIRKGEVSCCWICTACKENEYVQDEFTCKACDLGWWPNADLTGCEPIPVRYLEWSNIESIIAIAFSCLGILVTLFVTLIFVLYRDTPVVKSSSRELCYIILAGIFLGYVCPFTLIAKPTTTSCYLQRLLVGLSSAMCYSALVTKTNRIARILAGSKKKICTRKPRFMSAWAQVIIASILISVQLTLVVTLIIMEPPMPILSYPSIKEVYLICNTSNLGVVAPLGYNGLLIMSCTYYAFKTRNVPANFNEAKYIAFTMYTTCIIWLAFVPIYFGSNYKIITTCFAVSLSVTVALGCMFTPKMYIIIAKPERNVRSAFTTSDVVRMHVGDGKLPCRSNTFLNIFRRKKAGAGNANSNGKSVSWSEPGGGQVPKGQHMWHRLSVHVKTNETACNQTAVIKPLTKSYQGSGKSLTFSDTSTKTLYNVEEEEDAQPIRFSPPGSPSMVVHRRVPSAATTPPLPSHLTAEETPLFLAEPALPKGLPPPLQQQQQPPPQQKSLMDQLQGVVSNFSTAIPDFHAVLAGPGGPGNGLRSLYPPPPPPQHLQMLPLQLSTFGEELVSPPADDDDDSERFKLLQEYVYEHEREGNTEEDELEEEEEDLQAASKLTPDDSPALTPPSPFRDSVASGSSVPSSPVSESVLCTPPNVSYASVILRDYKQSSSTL
From the text: (§3) The activation of G-protein coupled receptors (GPCRs) that are coupled to Gq proteins results in a change in intracellular calcium concentration. This functional response can be measured in a kinetic assay using calcium-sensitive dyes and a fluorescent imaging plate reader using a standard technique known as FLIPR (MDS Analytical Technologies, Sunnyvale, Calif.).
(§4) Stable cell line preparation and assay techniques are adapted from Kingston, A. E., et. al. (1995) Neuropharmacology 34: 887-894. […]
(§5) For the functional assays, cells are seeded in growth medium lacking selection antibiotics at a density of 65K per well into 96-well, black/clear bottom, poly-D-lysine coated microplates and incubated for 18-20 hours prior to the experiment. […] The antagonist effects of compounds are quantified in the FLIPR instrument in 10-point dose curves by comparing the peak fluorescent responses to the agonist glutamate in the presence and absence of compound. Specifically, the compound effect is measured as maximal minus minimal peak heights in relative fluorescent units corrected for basal fluorescence as measured in the absence of glutamate. All data are calculated as relative IC50 values using a four-parameter logistic curve fitting program (Activity Base® v5.3.1.22).

[5] = target: T2, human mGluR5 (Homo sapiens, UniProt P41594); assay: Human mGluR5 in vitro functional assay (FLIPR calcium, antagonism of glutamate EC90 response); assay type: cell-based; conditions: AV-12 cells expressing recombinant human mGlu5a, relative IC50
T2 construct: expressed in transfected cells; host or cells: AV-12 cells containing the rat EAAT1 glutamate transporter
T2 sequence (P41594 21-1180 isoform P41594-2 limits assumed): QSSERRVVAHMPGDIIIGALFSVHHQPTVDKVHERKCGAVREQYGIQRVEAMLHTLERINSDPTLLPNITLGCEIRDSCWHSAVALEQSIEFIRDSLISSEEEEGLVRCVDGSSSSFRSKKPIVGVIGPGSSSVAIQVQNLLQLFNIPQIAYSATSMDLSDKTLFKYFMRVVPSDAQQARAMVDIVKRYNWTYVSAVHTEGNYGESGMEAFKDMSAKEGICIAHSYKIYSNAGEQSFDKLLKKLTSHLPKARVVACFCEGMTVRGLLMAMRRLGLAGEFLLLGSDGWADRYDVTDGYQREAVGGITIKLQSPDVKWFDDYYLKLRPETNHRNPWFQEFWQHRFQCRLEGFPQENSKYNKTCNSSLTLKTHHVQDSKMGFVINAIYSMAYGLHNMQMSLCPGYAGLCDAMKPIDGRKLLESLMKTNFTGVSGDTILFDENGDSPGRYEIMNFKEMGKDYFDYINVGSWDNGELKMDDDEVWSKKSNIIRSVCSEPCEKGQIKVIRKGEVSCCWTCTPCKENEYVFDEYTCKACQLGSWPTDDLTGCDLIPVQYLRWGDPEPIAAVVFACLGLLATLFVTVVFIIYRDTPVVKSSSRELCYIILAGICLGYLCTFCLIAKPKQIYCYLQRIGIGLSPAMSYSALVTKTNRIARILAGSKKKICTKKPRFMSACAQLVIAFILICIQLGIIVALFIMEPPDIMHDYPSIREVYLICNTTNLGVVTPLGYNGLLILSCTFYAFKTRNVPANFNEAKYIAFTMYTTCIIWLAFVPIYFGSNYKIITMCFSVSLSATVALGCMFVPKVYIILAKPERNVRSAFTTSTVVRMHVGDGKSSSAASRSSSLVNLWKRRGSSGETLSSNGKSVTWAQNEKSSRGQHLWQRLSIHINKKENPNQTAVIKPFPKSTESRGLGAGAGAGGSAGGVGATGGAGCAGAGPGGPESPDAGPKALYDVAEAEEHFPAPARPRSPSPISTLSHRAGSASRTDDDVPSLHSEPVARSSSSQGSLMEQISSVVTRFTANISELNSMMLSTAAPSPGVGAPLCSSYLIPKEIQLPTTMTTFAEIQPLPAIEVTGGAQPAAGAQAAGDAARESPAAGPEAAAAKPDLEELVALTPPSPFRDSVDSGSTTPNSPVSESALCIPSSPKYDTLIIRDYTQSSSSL
From the text: as §3, §4, §5

[6] = tested on: C57/black 6J male mice; assay: Basal (habituated) locomotor activity; assay type: in vivo
Protocol: as §1
Locomotor activity is measured using an automated system to track movement in mice. Mice are placed in chambers and allowed to habituate to the chambers for 30 mins. During this time they show reduced locomotion over time. Following administration of a compound of the invention, animal movement is restored to pre-habituation levels.
More specifically, locomotor activity boxes [40×40×40 cm clear arenas] are situated in groups of 4 placed on infrared tables and testing is performed in the dark. Locomotor activity is recorded and measured using infrared video tracking. Locomotor activity is recorded between time of 8:30 and 17:00 hours. In some instances locomotor activity is measured using open fields which use infrared beam breaks as a measure of movement.
as §2, with “mouse. Exploratory” for “mouse. Basal and reserpine-induced exploratory”, “compound or vehicle” for “compound”, “been dosed,” for “been dosed”, “on habituated locomotor activity.” for “on akinesia.”

[7] = reserpine 1 mg/kg i.p. + 3 mg/kg p.o. test compound
[8] = reserpine 1 mg/kg i.p. + 10 mg/kg p.o. test compound

Row | Structure (SMILES) | Reversal of Reserpine-Induced Akinesia (mean distance moved (cm) in 120 min) [3, 7] | Basal Locomotor Activity (mean distance moved (cm) in 120 min) ([6]; 3 mg/kg p.o.) | Basal Locomotor Activity (mean distance moved (cm) in 120 min) ([6]; 10 mg/kg p.o.) | Reversal of Reserpine-Induced Akinesia (mean distance moved (cm) in 120 min) [3, 8] | further results
1 | CCOC(=O)N1CCN(c2cn(C)c3nc(OCc4ccccn4)ccc23)C(=O)C1 [Example 1, ethyl 4-[1-methyl-6-(pyridin-2-ylmethoxy)-1H-pyrrolo[2,3-b]pyridin-3-yl]-3-oxopiperazine-1-carboxylate] | 23611 ***+++ cm | 15980 *** cm | 25109 *** cm |  | ED60 dose, reduction in forced swim immobility ([1]; extrapolated from linear portion of dose-effect curve): 8.6 mg/kg; maximal decrease in immobility ([1]; largest decrease at any dose relative to vehicle control): 50.6%; T35 dose (dose producing a 35% reduction in stress-induced hyperthermia relative to vehicle) [2]: 0.55 mg/kg; melting point: 143.42 °C; Reversal of Reserpine-Induced Akinesia (mean distance moved (cm) in 120 min) ([3]; reserpine 1 mg/kg i.p. + 1 mg/kg p.o. test compound): 15392 ++ cm; Reversal of Reserpine-Induced Akinesia (mean distance moved (cm) in 120 min) ([3]; reserpine 1 mg/kg i.p. + 30 mg/kg p.o. test compound): 32607 ***+++ cm; IC50 [4]: > 12.5 µM; IC50 [5]: 184 nM; Basal Locomotor Activity (mean distance moved (cm) in 120 min) ([6]; 1 mg/kg p.o.): 12147 ** cm
2 | CCCOC(=O)N1CCN(c2cn(C)c3nc(OCc4ccccn4)ccc23)C(=O)C1 [Example 3, Propyl 4-[1-methyl-6-(pyridin-2-ylmethoxy)-1H-pyrrolo[2,3-b]pyridin-3-yl]-3-oxopiperazine-1-carboxylate] |  | 28458.8 *** cm | 39857.5 *** cm |  | T35 dose (dose producing a 35% reduction in stress-induced hyperthermia relative to vehicle) [2]: 0.93 mg/kg
3 | CC(C)OC(=O)N1CCN(c2cn(C)c3nc(OCc4ccccn4)ccc23)C(=O)C1 [Example 4, 1-Methylethyl 4-[1-methyl-6-(pyridin-2-ylmethoxy)-1H-pyrrolo[2,3-b]pyridin-3-yl]-3-oxopiperazine-1-carboxylate] | 16474.1 + cm | 30715.2 ** cm | 39935.6 *** cm | 23394.4± **+++ cm | 
4 | CCn1cc(N2CCN(C(=O)OC)CC2=O)c2ccc(OCc3ccccn3)nc21 [Example 23, methyl 4-[1-ethyl-6-(pyridin-2-ylmethoxy)-1H-pyrrolo[2,3-b]pyridin-3-yl]-3-oxopiperazine-1-carboxylate] |  | 21628.2 ** cm | 31070.8 *** cm |  | 
5 | CCOC(=O)N1CCN(c2cn(C)c3nc(OCc4ccccn4)c(Cl)cc23)C(=O)C1 [Example 27, Ethyl 4-[5-chloro-1-methyl-6-(pyridin-2-ylmethoxy)-1H-pyrrolo[2,3-b]pyridin-3-yl]-3-oxopiperazine-1-carboxylate] | 27053.7 ***+++ cm | 35290.1 *** cm | 36889.1 *** cm | 23432.5 **+++ cm | 
6 | CCOC(=O)N1CCN(c2cn(C)c3nc(OCc4ccccn4)c(C)cc23)C(=O)C1 [Example 28, Ethyl 4-[1,5-dimethyl-6-(pyridin-2-ylmethoxy)-1H-pyrrolo[2,3-b]pyridin-3-yl]-3-oxopiperazine-1-carboxylate] | 7848.9 cm | 25074.1 ** cm | 32866.2 *** cm | 14087.6 **+++ cm | 
7 | COC(=O)[C@H]1[C@H]2C[C@@H]3c4[nH]c5cc(OC)ccc5c4CCN3C[C@H]2C[C@@H](OC(=O)c2cc(OC)c(OC)c(OC)c2)[C@@H]1OC [reserpine, Reserpine, reference compound] |  |  |  |  | mean distance moved (cm) in 120 min, reserpine alone ([3]; 18-24 hours after single dose of 1 mg/kg reserpine i.p., no test compound, 1 mg/kg): 4118.6 cm and 7331.1 cm and 4597.2 cm and 6150 cm
